Three molecules from patent publication US20110038855A1, “TRAIL AND METHODS OF MODULATING T CELL ACTIVITY AND ADAPTIVE IMMUNE RESPONSES USING TRAIL” (priority 2005, published 2011) can be followed below.

In experiment [1] the test system is E1B192-200-specific CD8+ T cells. The experiment is classed as cell-based, mouse. As to conditions: for secondary expansion of purified helpless CD8+ T cells (fold expansion of IFN-γ-producing E1B192-200-specific CD8+ T cells): caspase inhibitors 20 μM, 6 days after in vitro restimulation, CD4-depleted mice, FIGS. 1a, 1b.
Experiment [2] concerns GP33-41-specific CD8+ T cells. The experiment is classed as cell-based, mouse. As to conditions: 6 days.

Peptide text beside a SMILES is read from it. * marks the point of attachment. Cbz = O=C(OCc1ccccc1)*; CH2F = FC*

Regarding `CC(C)C(NC(=O)c1ccc2ccccc2n1)C(=O)NC(CC(=O)O)C(=O)COc1c(F)cccc1F` (stereo not drawn) [qVD-OPh, quinoline-Val-Asp-CH2-difluorophenoxy], in experiment [1], the “secondary expansion of purified helpless CD8+ T cells (fold expansion of IFN-γ-producing E1B192-200-specific CD8+ T cells)” value is on record as “restored secondary expansion”. For the molecule `COC(=O)C[C@H](NC(=O)[C@H](C)NC(=O)[C@@H](NC(=O)OCc1ccccc1)C(C)C)C(=O)CF` [zVAD-fmk, benzyloxycarbonyl-Val-Ala-Asp-fluoromethyl ketone] (Cbz-Val-Ala-Asp(OMe)-CH2F), the “secondary expansion of purified helpless CD8+ T cells (fold expansion of IFN-γ-producing E1B192-200-specific CD8+ T cells)” value in experiment [1] is on record as “restored secondary expansion”. The “secondary expansion of helpless LCMV-specific CD8+ T cells” value in experiment [2] is “restored”.

B1: recombinant TRAIL (protein)
chain: PRGGRPQKVAAHITGITRRSNSALIPISKDGKTLGQKIESWESSRKGHSFLNHVLFRNGELVIEQEGLYYIYSQTYFRFQEAEDASKMVSKDKVRTKQLVQYIYKYTSYPDPIVLMKSARNSCWSRDAEYGLYSIYQGGLFELKKNDRIFVSVTNEHLMDLDQEASFFGAFLIN
For B1, the “secondary expansion of helpless CD8+ T cells from TRAIL-deficient mice in presence of exogenous TRAIL” value in experiment [1] (CD4-depleted TRAIL-/- mice, 6 days, FIG. 4b) is “failed to do so”. Moreover, the “secondary expansion of helped CD8+ T cells in presence of exogenous TRAIL” value in experiment [1] (intact wild type mice, 6 days, FIG. 4a) is reported as “completely inhibited secondary expansion”.
